According to patent US6294580A, “Substituted 4-hydroxy-phenylalcanoic acid derivatives with agonist activity to PPAR-gamma” (Glaxo Wellcome Inc., priority 1996, dated 2001):
pEC50, pKi: −log10 of the molar value. Where a name gives a salt, the structure may show the parent alone. Read-outs that look alike come from different tables or passages of the source. Each block holds one compound with its values, some of them ahead of it.

Assays:
[1] = target: T1, hPPARgamma (Homo sapiens, UniProt P37231); experiment: hPPARgamma Ligand Binding Assay; conditions: competition with [3H]-BRL 49,653, room temperature 2 hrs
T1 construct: 10x-histidine tag (N); made in house; host or cells: E. coli
T1 sequence (P37231 195-475 isoform P37231-2): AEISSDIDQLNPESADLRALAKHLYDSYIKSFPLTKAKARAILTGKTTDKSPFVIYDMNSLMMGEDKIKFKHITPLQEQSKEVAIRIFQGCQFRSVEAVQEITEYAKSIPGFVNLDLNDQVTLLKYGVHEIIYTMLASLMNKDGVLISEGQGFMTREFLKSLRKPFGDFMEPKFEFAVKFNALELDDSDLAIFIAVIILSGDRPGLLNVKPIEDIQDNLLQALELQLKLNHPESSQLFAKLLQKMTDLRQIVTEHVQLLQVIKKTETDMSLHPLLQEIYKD
Experimental: 2. hPPARgamma Ligand Binding Assay: The PPAR-gamma ligand binding domain (amino acids 195-475) was expressed with an N-terminal 10×-histidinetag in E. coli cells. The cells were lysed and receptor was purified by means of the epitope tag. The stock solution of protein was diluted to 200 nM in assay buffer (50 mM Tris, 50 mM KCl, pH 8 20 mM CHAPS, 2 mM EDTA 10 mM DTT (Fresh)) just before use.
Test compounds were prepared as 6 mM stock solutions in DMSO. […] The right-most column of wells was used for controls. […] Plates were incubated at room temperature for 2 hrs, and then cooled on ice for 30 minutes. 50 uL samples from each well of a single test plate were simultaneously loaded onto an equilibrated AGTC 96 well gel filtration block (Advanced Genetics Technology Corp.) using a Zymak Rapidplate automated pipettor. The block was placed on top of a clean microtiter plate and centrifuged @1,100×g for 4 min. 200 uL of scintillation fluid was added to each well, the plates were sealed and allowed to equilibrate for at least 4 hours before counting in a Wallac 1250 Microbeta counter.
Ki's were determined from a nonlinear least squares fit of the data to a simple competitive binding model.

[2] = tested on: PPARg; experiment: PPARgamma Transient Cotransfection Assay; format: cell-based; conditions: CAT reporter; for pEC50: read-out: PPARg EC50

pKi ([1]; read-out: PPARg Ki): 6.20
pEC50 [2]: 6.30
Compound: 2-(2-Benzoyl-phenylamino)-3-(4-{2-[3-(5-methyl-pyridin-2-yl)-propoxy]-ethoxyl}-phenyl)-propionic acid [Example 122]

Compound: CN(CCOc1ccc(CC(Nc2ccccc2C(=O)c2ccc(-c3ccccc3)cc2)C(=O)O)cc1)c1nc2ccccc2o1 (centres unmarked) [Example 109, 3-{4-[2-(Benzoxazol-2-yl-methylamino)-ethoxy]-phenyl}-2-(2-(4-biphenylcarbonyl)-phenylamino)-propionic acid]
pKi ([1]; PPARg Ki): 6.15
pEC50 [2]: 6.70

Compound: Cc1oc(-c2ccccc2)nc1CCOc1ccc(C[C@H](Nc2ccccc2C(=O)NCCN)C(=O)O)cc1 [Example 89, 2-(S)-(1-carboxy-2-{4-{2-(5-methyl-2-phenyl-oxazol-4-yl)-ethoxy]-phenyl}-ethylamino)-benzoic acid 2-aminoethyl amide hydrochloride]
pKi ([1]; PPARg Ki): 5.52
pEC50 [2]: 7.22

Compound: CN(CCOc1ccc(CC(Nc2ccccc2C(=O)c2ccsc2)C(=O)O)cc1)c1nc2ccccc2o1 (centres unmarked) [Example 75]
pKi ([1]; PPARg Ki): 7.12
pEC50 [2]: 7.00

Compound: O=C(c1ccccc1)c1ccccc1NC(Cc1ccc(OCCc2cccnc2)cc1)C(=O)O (centres unmarked) [Example 123, 2-(2-Benzoyl-phenylamino)-3-[4-(2-pyridin-3-yl-ethoxy]-phenyl]-propionic acid]
pKi ([1]; PPARg Ki): 6.55
pEC50 [2]: 6.21

Compound: COC(=O)c1ccccc1N[C@@H](Cc1ccc(OCCc2nc(-c3ccccc3)sc2C)cc1)C(=O)O [Example 45, 2-(1-Carboxy-2-{4-[2-(5-methyl-2-phenyl-thiazol-4-yl)-ethoxy]-phenyl}-ethylamino)-benzoic acid methyl ester]
pKi ([1]; PPARg Ki): 7.52
pEC50 [2]: 9.00

Compound: COC(=O)[C@H](Cc1ccc(OCc2ccccc2)cc1)NC(=O)c1coc2ccccc2c1=O [Example 10, 3-(4-Benzyloxy-phenyl)-2(S)-[(4-oxo-4H-chromene-3-carbonyl)-amino]-propionic acid methyl ester]
pKi ([1]; PPARg Ki): 6.52
pEC50 [2]: 6.77

pKi ([1]; read-out: PPARg Ki): 7.10
pEC50 [2]: 7.70
Compound: 3-{4-[2-(Benzoxazol-2-yl-methylamino)-ethoxy]-phenyl}-3-(4-benzoyl-thienylamino)-propionic acid [Example 108]

Compound: O=C(c1ccccc1)c1ccccc1N[C@@H](Cc1ccc(OC[C@@H]2CCCN2c2ccccn2)cc1)C(=O)O [Example 61, 2S-(2-benzoyl-phenylamino)-3-[4-(1-pyridin-2-yl-pyrrolidin-2S-yl-methoxy)-phenyl]-propionic acid]
pKi ([1]; PPARg Ki): 8.00
pEC50 [2]: 7.82

Compound: Cc1ccccc1C(=O)c1ccccc1NC(Cc1ccc(OCCN(C)c2nc3ccccc3o2)cc1)C(=O)O (centres unmarked) [Example 112, 3-{4-[2-(Benzoxazol-2-yl-methylamino)-ethoxy]-phenyl}-2-(2-(2-methyl-benzoyl)-phenylamino)-propionic acid]
pKi ([1]; PPARg Ki): 6.89
pEC50 [2]: 8.00

Compound: O=C(c1ccccc1)c1ccsc1NC(Cc1ccc(OCc2ccccc2)cc1)C(=O)O (centres unmarked) [Example 8, 2-(3-Benzoyl-thiophen-2-yl-amino)-3-(4-benzyloxy-phenyl)-propionic acid]
pKi ([1]; PPARg Ki): 7.68
pEC50 [2]: 6.14

Compound: COC(=O)c1ccccc1N[C@@H](Cc1ccc(OCCc2ccc(OC(F)(F)F)cc2)cc1)C(=O)O [Example 107, 2(S)-(1-carboxy-2-{4-[2-(4-trifluoromethoxy-phenyl)-ethoxy]-phenyl}-ethylamino)-benzoic acid methyl ester]
pKi ([1]; PPARg Ki): 7.40
pEC50 [2]: 6.72

Compound: O=C(c1ccccc1)c1ccccc1N[C@@H](Cc1ccc(OCCSc2ccc(Cl)cc2)cc1)C(=O)O [Example 115, 2-(2-Benzoyl-phenylamino)-3-{4-2[-(4-chloro-phenylsulfanyl)ethoxy]-phenyl}-propionic acid]
pKi ([1]; PPARg Ki): 6.70
pEC50 [2]: 6.78

Compound: CC(=CC(=O)c1cccc(I)c1)N[C@@H](Cc1ccc(OCCN(C)c2nc3ccccc3o2)cc1)C(=O)O [Example 18, 3-{4-[2-(Benzoxazol-2-yl-methyl-amino)-ethoxy]-phenyl}-2(S)-[3-(3-iodo-phenyl)-1-methyl-3-oxo-propenylamino]-propionic acid dicyclohexylamine salt]
pKi ([1]; PPARg Ki): 8.00
pEC50 [2]: 8.30

Compound: Cc1oc(-c2ccccc2)nc1CCOc1ccc(CC(Nc2ccccc2C(=O)c2cccc(CN)c2)C(=O)O)cc1 (centres unmarked) [Example 86, 2-[2-(3-aminomethyl-benzoyl)-phenylamino]-3-{4-[2-(5-methyl-2-phenyl-oxazol-4-yl)-ethoxy]-phenyl}-propionic acid hydrochloride]
pKi ([1]; PPARg Ki): 6.19
pEC50 [2]: 7.52

Compound: Cc1oc(-c2ccccc2)nc1CCOc1ccc(C[C@H](Nc2ccccc2C(=O)c2cccnc2)C(=O)O)cc1 [Example 58, 3-{4-[2-(5-Methyl-2-phenyl-oxazol-4-yl)-ethoxy]-phenyl}-2(S)-[2-(pyridine-3-carbonyl)-phenylamino]-propionic acid]
pKi ([1]; PPARg Ki): 7.52
pEC50 [2]: 9.00

Compound: Cc1oc(-c2ccccc2)nc1CCOc1ccc(CC(Nc2ccccc2C(=O)c2cccc(OCC(N)=O)c2)C(=O)O)cc1 (centres unmarked) [Example 98, 2-[2-(3-Carbanoylmethoxy-benzoyl)-phenylamino]-3-{4-[2-(5-methyl-2-phenyl-oxazol-4-yl)-ethoxy]-phenyl}-propionic acid]
pKi ([1]; PPARg Ki): 8.00
pEC50 [2]: 6.43

Compound: O=C(c1ccccc1)c1ccccc1NC(Cc1ccc(OC[C@H]2CCCN2c2nc3ccccc3o2)cc1)C(=O)O (some centres unmarked) [Example 22]
pKi ([1]; PPARg Ki): 7.19
pEC50 [2]: 7.70

Compound: CC(=CC(=O)c1ccccc1)N[C@@H](Cc1ccc(OCCN(C)c2nc3ccccc3o2)cc1)C(=O)O [Example 17, 3-{4-[2-(Benzoxazol-2yl-methyl-amino)-ethoxy]-phenyl}-2(S)-(1-methyl-3-oxo-3-phenyl-propenylamino)-propionic acid dicyclohexylamine salt]
pKi ([1]; PPARg Ki): 7.10
pEC50 [2]: 9.00

Compound: CN(CCOc1ccc(CC(Nc2ccccc2C(=O)c2ccc(C(F)(F)F)cc2)C(=O)O)cc1)c1nc2ccccc2o1 (centres unmarked) [Example 73]
pKi ([1]; PPARg Ki): 6.94
pEC50 [2]: 7.60

Compound: CN(CCOc1ccc(CC(Nc2ccsc2C(=O)c2ccccc2)C(=O)O)cc1)c1nc2ccccc2o1 (centres unmarked) [Example 25]
pKi ([1]; PPARg Ki): 7.15
pEC50 [2]: 9.00

Compound: CN(CCOc1ccc(CC(Cc2ccccc2Br)C(=O)O)cc1)c1nc2ccccc2o1 (centres unmarked) [Example 27, 3-{4-[2-(Benzoxazol-2-yl-methyl-amino)-ethoxy]-phenyl}-2-(2-bromo-benzyl)-propionic acid trifluoroacetate]
pKi ([1]; PPARg Ki): 6.52
pEC50 [2]: 6.40

Compound: Cc1cc(-c2ccco2)nn1CCOc1ccc(C[C@H](Nc2ccccc2C(=O)c2ccccc2)C(=O)O)cc1 [Example 63, 2S-(2-benzoyl-phenylamino)-3-{4-[2-(3-furan-2-yl-5-methyl-pyrazol-1-yl)-ethoxy]-phenyl}-propionic acid]
pKi ([1]; PPARg Ki): 7.52
pEC50 [2]: 7.70

Compound: Cc1oc(-c2ccccc2)nc1CCOc1ccc(CC(Nc2ccccc2C(=O)c2cccc(O)c2)C(=O)O)cc1 (centres unmarked) [Example 97, 2-[2-(3-hydroxy-benzoyl)-phenylamino]-3-{4-[2-(5-methyl-2-phenyl-oxazol-4-yl)-ethoxy]-phenyl}-propionic acid]
pKi ([1]; PPARg Ki): 8.30
pEC50 [2]: 7.70

Compound: Cc1oc(-c2ccccc2)nc1CCOc1ccc(CC(Nc2ccccc2C(=O)c2cccc(NS(C)(=O)=O)c2)C(=O)O)cc1 (centres unmarked) [Example 95, 2-[2-(3-methanesulfonylamino-benzoyl)-phenylamino]-3-{4-[2-(5-methyl-2-phenyl-oxazol-4-yl)-ethoxy]-phenyl}-propionic acid]
pKi ([1]; PPARg Ki): 6.42
pEC50 [2]: 6.15

Compound: CC(=CC(=O)c1ccccc1)N[C@@H](Cc1ccc(OCc2ccccc2)cc1)C(=O)O [Example 1, 3-(4-Benzyloxy-phenyl)-2(S)-(1-methyl-3-oxo-3-phenyl-propenylamino)-propionic acid dicyclohexylamine salt]
pKi ([1]; PPARg Ki): 7.26
PPARg Fold. Act. [2]: 26
pEC50 [2]: 7.22

Compound: COc1ccccc1C(=O)c1ccccc1NC(Cc1ccc(OCCN(C)c2nc3ccccc3o2)cc1)C(=O)O (centres unmarked) [Example 79]
pKi ([1]; PPARg Ki): 7.30
pEC50 [2]: 7.52

Compound: Cc1cccc(C)c1C(=O)c1ccccc1NC(Cc1ccc(OCCN(C)c2nc3ccccc3o2)cc1)C(=O)O (centres unmarked) [Example 83]
pKi ([1]; PPARg Ki): 6.46
pEC50 [2]: 6.78

Compound: CCCNS(=O)(=O)c1ccc(C(=O)c2ccccc2NC(Cc2ccc(OCCc3nc(-c4ccccc4)oc3C)cc2)C(=O)O)cc1 (centres unmarked) [Example 93, 3-{4-[2-(5-methyl-2-phenyl-oxazol-4-yl)-ethoxy]-phenyl}-2-[2-(4-propylsulfamoyl-benzoyl)-phenylamino]-propionic acid]
pKi ([1]; PPARg Ki): 7.00
pEC50 [2]: 7.26

Compound: CN(CCOc1ccc(CC(Nc2ccccc2C(=O)c2cccc(C(F)(F)F)c2)C(=O)O)cc1)c1nc2ccccc2o1 (centres unmarked) [Example 76]
pKi ([1]; PPARg Ki): 6.96
pEC50 [2]: 8.00

pKi ([1]; read-out: PPARg Ki): 5.94
pEC50 [2]: 6.33
Compound: Cc1oc(-c2ccccc2)nc1CCOc1ccc(CC(Nc2ccccc2C(=O)c2cccc(CN(C)C)c2)C(=O)O)cc1 (centres unmarked) [Example 87, 2-[2-(3-dimethylaminomethyl-benzoyl)-phenylamino]-3-{4-[2-(5-methyl-2-phenyl-oxazol-4-yl)-ethoxy]-phenyl}-propionic acid hydrochloride]

Compound: COC(=O)c1ccccc1N[C@@H](Cc1ccc(OCCc2ccc(N(C)C)cc2)cc1)C(=O)O [Example 104, 2(S)-(1-carboxy-2-{4-[2-(4-dimethylamino-phenyl)-ethoxy]-phenyl}-ethylamino)-benzoic acid methyl ester]
pKi ([1]; PPARg Ki): 5.52
pEC50 [2]: 6.05
